Literature values as cited in PMC3085958 (Journal of medicinal chemistry, 2011).
Marks after values point to notes of the source that are not given here.

Biological target: CB2 receptors (Homo sapiens, UniProt P34972)
Conditions: Kb value

Chain of CB2 receptors (P34972 whole entry): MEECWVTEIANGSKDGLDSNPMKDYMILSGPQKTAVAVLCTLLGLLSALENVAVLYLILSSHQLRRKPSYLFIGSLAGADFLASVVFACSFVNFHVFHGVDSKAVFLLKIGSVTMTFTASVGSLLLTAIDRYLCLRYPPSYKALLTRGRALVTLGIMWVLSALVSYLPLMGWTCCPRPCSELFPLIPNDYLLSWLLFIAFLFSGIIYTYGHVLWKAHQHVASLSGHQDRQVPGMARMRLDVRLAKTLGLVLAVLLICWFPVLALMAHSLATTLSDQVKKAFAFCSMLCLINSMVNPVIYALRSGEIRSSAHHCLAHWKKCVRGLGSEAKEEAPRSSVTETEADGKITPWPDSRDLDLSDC

Compound: COc1cccc([C@H]2C[C@@H](N[C@H](C)c3ccccc3)C(=O)N2c2ccc(C(F)(F)F)cc2)c1 [Ligand 3]
- CB2 Kb (in the CB2 Ki column): > 1,980 ^c nM
